How the values were obtained:
[1] = Polymers generated at end of OSI experiment in fish oil, by LC; settings: FG30TG oil, end of stabilization experiment
Procedure: The compounds of formulae (6) and (9) (see Table 14 below), compound of formula (4) (see Table 15 below) and compound of formula (8) (see Table 16 below) were used at different times in the Oxidative Stability instruments under similar operational conditions used for fish oil evaluations. MNT and the oil without any antioxidants (“Blank”) were always used to compare. Also, the synergistic effect of only oil soluble compounds with ascorbyl palmitate was determined using the OSI values. The polymers generated at the end of the experiment were determined by LC (LC=liquid chromatography). Polymers generated at the end of the stabilization experiment of fish oil with compounds of formulae 6 and 9 and AP are shown in Table 24. A combination of complex, polymeric compounds generated at the end of the oxidation cascade of unsaturated fatty acids indicate the levels of overall oxidation of the matrix. The generation of such polymers in fish oil containing these novel antioxidant compounds could be reduced considerably when AP was added as a synergistic compound (Table 24).

[2] = Oil Stability Index in crude algal oil, Example 12; settings: for prooxidant effect in algal oil: higher levels (2 mg/g)
Description: To evaluate the efficacy of the compounds of formulae (4), (6), (8) and (9) in algal oils, only oil soluble compounds were used. […] Protection Factors of all these compounds, including MNT, in fish oil could be improved by the addition of AP (Tables 22-23) indicating the possibility of combining AP to all these novel compounds to improve the oxidative stability of matrices containing high amounts of unsaturated fatty acids such as fish oil.

Solubility in fish oil = assay type: physicochemical
Procedure: The compounds of formulae (4), (6), (8) and (9) were evaluated primarily for their oxidative stability by the Oil Stability Index (OSI) measurements. Two different levels of these antioxidants (0.5 and 2 mg/g) were used in 5 g of natural fish oil (Product code: FG30TG) and used in the Oxidative Stability Instrument at 80° C. with the air flow rate of 40 psi. The solubility of different amounts and types of antioxidants used in OSI was checked before and after the application. […]

[3] = Storage stability in fish oil (PV, p-AV, CD), Example 12; settings: FG30TG, 2 mg/g
Procedure: Tables 25, 26 and 27 show the PV (peroxide value), p-AV (p-anisidine value) and CD (Conjugated dienoic acid %) of the fish oil samples stabilized with compounds of formulae (6), (8) and (9), respectively.
For the storage stability study oil soluble compounds were used in fish oil at 2 mg/g level only. […] There was no considerable variation in p-AV and CD (Tables 26-27) during the storage.

[4] = Oil Stability Index (OSI) in fish oil, Example 12; settings: for OSI / Protection Factor (%): FG30TG fish oil; for antioxidant effect (OSI) in fish oil compared with MNT: Example 12, same level of MNT
Procedure: The compounds of formulae (4), (6), (8) and (9) were evaluated primarily for their oxidative stability by the Oil Stability Index (OSI) measurements. Two different levels of these antioxidants (0.5 and 2 mg/g) were used in 5 g of natural fish oil (Product code: FG30TG) and used in the Oxidative Stability Instrument at 80° C. with the air flow rate of 40 psi. The solubility of different amounts and types of antioxidants used in OSI was checked before and after the application.
The compounds of formulae (6) and (9) (see Table 14 below), compound of formula (4) (see Table 15 below) and compound of formula (8) (see Table 16 below) were used at different times in the Oxidative Stability instruments under similar operational conditions used for fish oil evaluations. MNT and the oil without any antioxidants (“Blank”) were always used to compare. Also, the synergistic effect of only oil soluble compounds with ascorbyl palmitate was determined using the OSI values. The polymers generated at the end of the experiment were determined by LC (LC=liquid chromatography).
The Protection Factors (PF) for each compound in oil were calculated in percentage as: […]

[5] = Oxipres antioxidant efficacy value (EV) in fish meal; settings: Oxipres 70° C., 5 bar O2, equimolar to BHT; EV relative to BHT (EV=1)
[6] = Table 20, 2 mg/g + 0.5 mg/g of AP (ascorbyl palmitate)
[7] = Table 22, 2 mg/g + 0.5 mg/g of AP

| SMILES | Polymers (%) ([1]; 2 mg/g + 0.5 mg/g of AP) | Polymers (%) ([1]; 2 mg/g, without AP) | OSI values in algal oil compared with MNT [2] | prooxidant effect in algal oil [2] | Solubility in fish oil, 80° C. (Solubility in fish oil; 0.5 mg/g) | Solubility in fish oil, Room temp. (Solubility in fish oil; 0.5 mg/g) | Solubility in fish oil, 80° C. (Solubility in fish oil; 2.0 mg/g) | Solubility in fish oil, Room temp. (Solubility in fish oil; 2.0 mg/g) | CD (conjugated dienoic acid in %) ([3]; 4 days) [%] | PV (peroxide value) ([3]; 4 days) | p-AV (p-anisidine value) ([3]; 4 days) | CD (conjugated dienoic acid in %) ([3]; 6 days) [%] | PV (peroxide value) ([3]; 6 days) | p-AV (p-anisidine value) ([3]; 6 days) | CD (conjugated dienoic acid in %) ([3]; 8 days) [%] | PV (peroxide value) ([3]; 8 days) | p-AV (p-anisidine value) ([3]; 8 days) | CD (conjugated dienoic acid in %) ([3]; 11 days) [%] | PV (peroxide value) ([3]; 11 days) | p-AV (p-anisidine value) ([3]; 11 days) | further results |
| --- | --- | --- | --- | --- | --- | --- | --- | --- | --- | --- | --- | --- | --- | --- | --- | --- | --- | --- | --- | --- | --- |
| Cc1c(C)c2c(c(C)c1O)CCC(C)(CO)O2 (centres unmarked) [Compound of formula (6), 2-Hydroxymethyl-2,5,7,8-Tetramethyl-6-Chromanol] | 25.09 | 37.37 | clearly lower OSI values than those of MNT | possible prooxidant effect | Soluble | Soluble | Soluble | Soluble | 0.7 | 4.1 | 10.4 | 0.7 | 7 | 9.7 | 0.7 | 7.9 | 10.2 | 0.8 | 10.2 | 10.4 | CD (conjugated dienoic acid in %) ([3]; 13 days): 0.8%; PV (peroxide value) ([3]; 13 days): 14.9; p-AV (p-anisidine value) ([3]; 13 days): 10.3; CD (conjugated dienoic acid in %) ([3]; 15 days): 0.8%; PV (peroxide value) ([3]; 17 days): 18.6; p-AV (p-anisidine value) ([3]; 17 days): 10.7; CD (conjugated dienoic acid in %) ([3]; Initial): 0.7%; PV (peroxide value) ([3]; Initial): 0.9; p-AV (p-anisidine value) ([3]; Initial): 9.9; OSI ([4]; Table 14, 80° C., 0.5 mg/g): 7.05 h; OSI ([4]; Table 14, 80° C., 2 mg/g): 7.30 h; Protection Factor (%) ([4]; Table 17, 0.5 mg/g): 54.95%; Protection Factor (%) ([4]; Table 17, 2 mg/g): 60.44%; OSI [4, 6]: 11.20 h; OSI ([4]; Table 20, 2 mg/g, without AP): 6.15 h; Protection Factor (%) [4, 7]: 141.9%; Protection Factor (%) ([4]; Table 22, 2 mg/g, without AP): 32.8%; antioxidant effect (OSI) in fish oil compared with MNT [4]: comparable to the effect of MNT; EV in Fish meal [5]: 1.03 |
| Cc1c(C)c2c(c(C)c1O)CCC(C)(CCCC(C)C)O2 (centres unmarked) [Compound of formula (9)] | 31.06 | 40.34 | clearly lower OSI values than those of MNT | possible prooxidant effect | Soluble | Soluble | Soluble | Soluble | 0.7 | 2.9 | 10.5 | 0.7 | 7.3 | 9.9 | 0.8 | 8.8 | 10.3 | 0.9 | 11.2 | 10.5 | CD (conjugated dienoic acid in %) ([3]; 13 days): 0.8%; PV (peroxide value) ([3]; 13 days): 15; p-AV (p-anisidine value) ([3]; 13 days): 10.5; CD (conjugated dienoic acid in %) ([3]; 15 days): 0.8%; PV (peroxide value) ([3]; 17 days): 19.2; p-AV (p-anisidine value) ([3]; 17 days): 11; CD (conjugated dienoic acid in %) ([3]; Initial): 0.7%; PV (peroxide value) ([3]; Initial): 0.9; p-AV (p-anisidine value) ([3]; Initial): 9.9; OSI ([4]; Table 14, 80° C., 0.5 mg/g): 5.75 h; OSI ([4]; Table 14, 80° C., 2 mg/g): 6.05 h; Protection Factor (%) ([4]; Table 17, 0.5 mg/g): 26.37%; Protection Factor (%) ([4]; Table 17, 2 mg/g): 32.97%; OSI [4, 6]: 8.93 h; OSI ([4]; Table 20, 2 mg/g, without AP): 6.30 h; Protection Factor (%) [4, 7]: 92.8%; Protection Factor (%) ([4]; Table 22, 2 mg/g, without AP): 36.1%; antioxidant effect (OSI) in fish oil compared with MNT [4]: comparable to the antioxidative effect of MNT |
